Literature values, collected in EP1136875A2, “Small 3D emulsions with enhanced photographic response” (EASTMAN KODAK COMPANY, priority 2000, dated 2001).

Conditions: value is for the conjugate acid of the printed base

Row | SMILES | pKa's in water of the conjugate acids of some useful bases
1 | C[N+](C)(C)[O-] [(CH3)3N^+–O^-] | 4.65
2 | CC(=O)S [CH3–COS^-] | 3.33
3 | CC(=O)NCC(=O)O [CH3–CO–NH–CH2–CO2^-] | 3.67
